Assay results: publication PMC12469672, “Effects on Oral Squamous Carcinoma Cell Lines and Their Mechanisms of Pyrazole N-Aryl Sulfonate: A Novel Class of Selective Cyclooxygenase-2 Inhibitors” (International Journal of Molecular Sciences, 2025)
Like-named read-outs stand apart in the source and are kept apart here.

Columns and labels:
CAL-27 cells [1] = experiment: CCK-8 proliferation assay, CAL-27; type: cell-based; conditions: for IC50: Homo sapiens; for Selectivity Index CAL-27: SI = IC50,VERO/IC50,CAL-27
Experimental: (§1) The OSCC cell lines CAL-27 (STCC12901P, Servicebio, Wuhan, China) and SAS (CC0706, Cellcook, Guangzhou, China) were cultured in Dulbecco Modified Eagle Medium F12 (DMEM/F12) (G4610-500ML, Servicebio, Wuhan, China) supplemented with 10% fetal bovine serum (FBS) (AB-FBS-DIA1050, ABW, Shanghai, China) and 100 U/mL penicillin-streptomycin-gentamicin solution (G4014-100ML, Servicebio, Wuhan, China). VERO cells were cultured in DMEM (G4524-500ML, Servicebio, Wuhan, China) supplemented with 10% FBS (AB-FBS-DIA1050, ABW, China) and 100 U/mL penicillin–streptomycin–gentamicin solution (G4014-100ML, Servicebio, Wuhan, China). […] were maintained at 37 °C in a humidified 5% CO2 incubator. For experiments, 1 × 10^6 cells were seeded per T-25 culture flask.
(§2) CAL-27, SAS, and VERO cells were seeded in 96-well plates at a density of 5000 cells per well. At specified time intervals, 10 μL of Cell Counting Kit-8 (CCK-8) reagent (K1018, Apexbio, Boston, MA, USA) was added to each well and incubated for 2 h. Absorbance at 450 nm was measured using a microplate reader (Infinite M200 Pro, Tecan Group, Männedorf, Switzerland).

VERO cells = experiment: CCK-8 cytotoxicity assay, VERO; type: cell-based, African green monkey; conditions: for IC50: Chlorocebus sabaeus, VERO, CCK-8, 24 h; for proliferation rate of VERO cells / cytotoxicity in VERO cells: working concentrations; for proliferation rate of VERO cells: 24 h, vs control; for cytotoxicity in VERO cells: vs CXB
Experimental: as §1, §2

[2] = tested on: COX-2 mRNA in CAL-27 cells; experiment: RT-qPCR COX-2 mRNA, CAL-27; type: cell-based; conditions: CAL-27, working concentrations, 24 h
Experimental: (§3) Equal amounts of RNA were reverse transcribed into cDNA using the Reverse Transcription Kit (AG11705, Accurate Biology, Guangzhou, China) following the manufacturer’s instructions. Quantitative PCR was performed on a QIAGEN Rotor-GeneQ system (9001862, QIAGEN, Hilden, Germany) with SYBR Green Pro Taq HS Premix II (AG11702, Accurate Biology, China).
(§4) The PCR protocol consisted of initial denaturation at 95 °C for 30 s, followed by 40 cycles of 95 °C for 5 s and 60 °C for 30 s. All reactions were performed in triplicate, with melting curve analysis confirming amplification specificity. The expression of the target genes was normalized to GAPDH, and fold changes were calculated in the manner of the 2^−ΔΔCT .

[3] = tested on: COX-2 protein in CAL-27 cells; experiment: Western blot COX-2, CAL-27; type: cell-based; conditions: CAL-27, vs control group and CXB-treated group
Experimental: Cell lysates were centrifuged at 12,000× g for 10 min at 4 °C and then quantified using the BCA Protein Assay Kit (CW0014S, Cwbio, Taizhou, China). The lysate was denatured with sodium dodecyl sulfate–polyacrylamide gel electrophoresis (SDS-PAGE) sample loading buffer (P1040, Solarbio, Beijing, China), followed by SDS-PAGE and electrotransfer to polyvinylidene difluoride membranes (10600023, Cytiva, Marlborough, MA, USA). The membranes were incubated overnight at 4 °C with GAPDH (1:5000, 1049-1-AP, Proteintech Group, Wuhan, China), anti-PTGS2 (1:2000, 12375-1-AP, Proteintech Group, China), anti-BAX (1:1000, ab777, Abcam, Cambridge, UK), anti-BCL2 (1:5000, ET1702-53, HUABIO, Hangzhou, China), anti-BCL-XL (1:8000, 10783-1-AP, Proteintech Group, China), anti-MMP2 (1:3000, 66366-1-Ig, Proteintech Group, China), anti-MMP9 (1:3000, 10372-2-AP, Proteintech Group, China), anti-JAK1 (1:3000, 66466-1-Ig, Proteintech Group, China), anti-phospho-JAK1 (1:400, GB115604-100, Servicebio, China), anti-STAT3 (1:2000, 10253-2-AP, Proteintech Group, China), and anti-phospho-STAT3 (1:1000, 39595, Activemotif, Shanghai, China) at the appropriate dilution and then incubated with the secondary antibody at room temperature for 1.5 h. The bands were visualized by employing an ECL detection reagent (36208ES76, Yeasen, Shanghai, China) and independently quantified twice using ImageJ (v1.8.0.322) and ChemiScope Analysis (Version 2.1.6.0) software. Subsequently, the obtained data were normalized to GAPDH.

[4] = tested on: CYP19A1 mRNA in SAS cells; experiment: RT-qPCR CYP19A1 mRNA, SAS; type: cell-based; conditions: vs control group and CXB-treated group
Experimental: as §3, §4

CAL-27 cells [5] = experiment: Transwell migration assay, CAL-27; type: cell-based; conditions: CAL-27, 24 h treatment at working concentrations, vs control
Experimental: Following 24 h drug treatment at the predefined working concentrations, CAL-27 and SAS cells (5 × 10^5 cells/mL in serum-free medium) were seeded in Transwell upper chambers (200 μL/well, 1 × 10^5 cells) with 700 μL complete medium containing 10% FBS in lower chambers. After 36 h of incubation (37 °C, 5% CO2), the cells from the upper surface of the membrane were wiped off using a cotton swab, whereupon migrated cells were fixed (4% paraformaldehyde [P0099-100 mL, Beyotime, Haimen, China], 4 °C, 4 h), stained (0.1% crystal violet [C0121-100 mL, Beyotime, China], 30 min), and quantified by counting five random fields under a microscope (CX23, Olympus, Tokyo, Japan) using ImageJ (v1.8.0.322), with triplicate wells per condition.

[6] = tested on: MMP9 mRNA in CAL-27 cells; experiment: RT-qPCR MMP9 mRNA, CAL-27; type: cell-based; conditions: CAL-27, 24 h, vs control
Experimental: as §3, §4

CAL-27 cells [7] = experiment: Hoechst 33342 staining, CAL-27; type: cell-based; conditions: CAL-27, 24 h, working concentrations, vs NC
Experimental: (§5) After 24 h drug treatment at the predefined working concentrations, CAL-27 and SAS cells were dyed with 300 μL Hoechst 33342 staining (C1022, Beyotime, China) in the dark at 37 °C for 10 min. Then, the residual Hoechst 33342 staining was washed 3 times with 1 × phosphate-buffered saline (PBS, G4250-500ML, Servicebio, China). The images were then immediately examined under an inverted fluorescence microscope (CX23, Olympus, Japan).

SAS cells = experiment: Hoechst 33342 staining, SAS; type: cell-based; conditions: 24 h, working concentrations, vs NC
Experimental: as §5

[8] = tested on: BCL2 mRNA in CAL-27 cells; experiment: RT-qPCR BCL2 mRNA, CAL-27; type: cell-based; conditions: CAL-27, 24 h, vs control (NC)
Experimental: as §3, §4

[9] = CAL-27, 24 h, CAL-27, CCK-8, 24 h, given as a range, read-out: IC50 (range)
[10] = CAL-27, CAL-27, CCK-8, read-out: IC50 CAL-27

Compound: Cc1cc(-c2ccco2)nn1S(=O)(=O)Oc1ccccc1Cl [Compound 5f]
- IC50 (CAL-27 cells [1]; [9]): 52.9 to 74.8 µM
- IC50 (CAL-27 cells [1]; [10]): 64.2 µM
- Selectivity Index CAL-27 (CAL-27 cells [1]): 3.50
- IC50 (VERO cells): 225 µM
- proliferation rate of VERO cells (VERO cells): moderate inhibitory effect
- cytotoxicity in VERO cells (VERO cells): lower cytotoxicity than CXB
- COX-2 mRNA level ([2]; vs CXB-treated group): significantly lower
- COX-2 mRNA level ([2]; vs control): significantly downregulated
- COX-2 protein expression (Western blot) [3]: significantly reduced
- CYP19A1 mRNA expression [4]: significantly reduced
- migratory capacity (Transwell) (CAL-27 cells [5]): significantly reduced
- MMP9 mRNA expression [6]: significantly downregulated
- apoptotic cells (Hoechst 33342, fluorescence microscopy) (CAL-27 cells [7]): significant increase
- apoptotic cells (Hoechst 33342, fluorescence microscopy) (SAS cells): significant increase
- BCL2 mRNA level [8]: upregulated

Compound: Cc1ccc(-c2cc(C)n(S(=O)(=O)Oc3ccc(I)cc3)n2)cc1 [Compound 4b]
- IC50 (CAL-27 cells [1]; [9]): 38.9 to 43.8 µM
- IC50 (CAL-27 cells [1]; [10]): 41.4 µM
- Selectivity Index CAL-27 (CAL-27 cells [1]): 2.47
- IC50 (VERO cells): 102 µM
- proliferation rate of VERO cells (VERO cells): remained largely unchanged
- cytotoxicity in VERO cells (VERO cells): lower cytotoxicity than CXB
- COX-2 mRNA level ([2]; vs CXB-treated group): significantly lower
- COX-2 mRNA level ([2]; vs control): significantly downregulated
- COX-2 protein expression (Western blot) [3]: significantly reduced
- CYP19A1 mRNA expression [4]: significantly reduced
- migratory capacity (Transwell) (CAL-27 cells [5]): significantly reduced
- MMP9 mRNA expression [6]: significantly downregulated
- apoptotic cells (Hoechst 33342, fluorescence microscopy) (CAL-27 cells [7]): significant increase
- apoptotic cells (Hoechst 33342, fluorescence microscopy) (SAS cells): significant increase
- BCL2 mRNA level [8]: significantly downregulated

Compound: Cc1ccc(-c2cc(C)n(S(=O)(=O)Oc3ccccc3Cl)n2)cc1 [Compound 4d]
- IC50 (CAL-27 cells [1]; [9]): 44.3 to 55.1 µM
- IC50 (CAL-27 cells [1]; [10]): 53.9 µM
- Selectivity Index CAL-27 (CAL-27 cells [1]): >1.86
- IC50 (VERO cells): > 100 µM
- proliferation rate of VERO cells (VERO cells): remained largely unchanged
- cytotoxicity in VERO cells (VERO cells): lower cytotoxicity than CXB
- COX-2 mRNA level ([2]; vs CXB-treated group): significantly lower
- COX-2 mRNA level ([2]; vs control): significantly downregulated
- COX-2 protein expression (Western blot) [3]: significantly reduced
- CYP19A1 mRNA expression [4]: significantly reduced
- migratory capacity (Transwell) (CAL-27 cells [5]): significantly reduced
- MMP9 mRNA expression [6]: significantly downregulated
- apoptotic cells (Hoechst 33342, fluorescence microscopy) (CAL-27 cells [7]): significant increase
- apoptotic cells (Hoechst 33342, fluorescence microscopy) (SAS cells): significant increase
- BCL2 mRNA level [8]: significantly downregulated
